The results in this text go back to US9649389B2, “Substituted silaxanthenium red to near-infrared fluorochromes for in vitro and in vivo imaging and detection” (VisEn Medical, Inc., priority 2013, dated 2017).

SMILES strings stand for the structures.

The nature of data set [1]: Optical properties of silaxanthenium fluorochromes (absorption/emission maxima, relative brightness). The format is physicochemical. The conditions noted are these: for Abs. λmax / Em. Λmax: 1×PBS, 1 cm square cuvette; for Relative Fluorescence: brightness (fluorescence intensity / absorption at λmax) normalized to CY1, 1×PBS. From the text:
The relative brightness is defined by the fluorescence intensity of a solution of the fluorochrome in a 1 cm square cuvette when excited at its wavelength of maximum absorption divided by the absorption of the same sample at the wavelength of maximum absorption. The three examples shown with a S atom in the X position of Formula II are red shifted about 20 nm relative to three examples with the S atom in the Y or Z positions.
This example summarizes in Table 3 the absorption and emission characteristics of some exemplary silaxanthenium (SX) fluorochromes relative to a cell impermeable cyanine dye (sulfonated Cy5 analog) CY1. Absorption and emission characteristics were measured in 1×PBS in a 1 cm square cuvette. Relative fluorescence (brightness) was measured as in Example 8 and normalized to that of compound CY1.

Data set [2] has as its system 4T1 cells. Description: Cellular uptake and washout by flow cytometry and fluorescence microscopy. The format is cell-based. Conditions: for cellular uptake: 1 uM, 30 min, 37° C.; for dye still remaining after washout: 1.5 h washout, flow cytometry. The protocol: (§1) Two isomeric thienyl Si-Rho dyes 88 and 89, were synthesized using the methods described previously. The two isomeric compounds, which are of identical molecular weight and molecular formula, have absorption and emission maxima of 652 nm and 668 nm (88) and 667 nm and 681 nm (89). Compounds were analyzed with two different filter sets by flow cytometry and also by fluorescence microscopy for cellular uptake and washout. Trypsin EDTA-detached 4T1 at 0.5 mil cells/mL culture medium were incubated with 1 uM 88 or 89 for 30 min at 37° C. Cells were washed 1× with PBS and analyzed by flow cytometry with a 705/70 nm emission filter for 88 and a 712/21 nm emission filter for 89 and by fluorescence microscopy.
For orientation: A flow cytometer gives signals particle by particle.

Data set [3] can be described thus: Absorption and emission maxima of two isomeric thienyl dyes. The format is physicochemical. The protocol:
as §1

Data set [4] relates to KB cells. Put plainly: Cell uptake of glucosamine conjugated SX compound by fluorescence microscopy and flow cytometry. The conditions noted are these: 30 μM, 30 minutes. The format is cell-based. The protocol:
This example illustrates cell uptake of a biomolecule (glucosamine) conjugated SX compound, compound 67 in KB cells. KB cells were cultured in media for 2 h then incubated with 30 μM of compound 67 for 30 minutes before analysis of the cells by fluorescence microscopy and flow cytometry with appropriate filter sets for the two different fluorescent dyes. As a control, cells were also incubated with the commercial fluorescent glucosamine derivative 2-NBDG also at 30 μM.

Data set [5] concerns chymotrypsin. Description: Fluorescence activation of internally quenched probe upon protease cleavage. The format is biochemical. Conditions: 1×PBS, 37° C., 4 h. From the text:
FIG. 6A illustrates fluorescence activation upon enzyme cleavage of an internally quenched pair of silaxanthenium fluorochromes separated by an enzyme cleavable peptide sequence (Compound 78). Compound 78 was synthesized by conjugating two carboxylic acid dyes to lysine side chain amines in the peptide sequence using HATU and triethylamine. The quenched probe was purified by HPLC. Absorbance and fluorescence, measured on a Cary 50 UV-vis spectrophotometer (Varian) and a Cary Eclipse fluorescence spectrophotometer, respectively, of the quenched (dashed lines) and activated (cleaved by chymotrypsin in 1×PBS, solid lines) fluorochromes are shown in FIG. 6B.
A 22-fold increase in fluorescence intensity was observed. […] Trypsin EDTA-detached 4T1 were seeded in a 6-well tissue culture plate at 0.5 mil cells/2 mL of culture medium were incubated with 1 or 5 uM of 92, 93, or 91 for 21 h at 37° C. Cells were washed 1× with PBS, detached, and analyzed by FC and FLM (Cy5 filter). […] Trypsin EDTA-detached 4T1 cells were implanted 1.5 mil/site approximately 1 week prior to imaging. 92 was injected retro-orbitally at 4 nmol and imaged by FMT at 5 and 24 h.

Data set [6] in a line: In vivo tomographic imaging (FMT 2500) after intravenous injection. Conditions: 2 nmoles intravenous, SKH-1 E female mice. The protocol:
Two SKH-1 E female mice (9 weeks old) were injected with 2 nmoles of compound 44. Tomographic images of the whole body of the mouse were taken at 1, 15, 30 and 45 minutes and 1, 2 and 3 hours.

Turning to `Cc1c(C(=O)O)sc(C2=C3C=CC(=[N+](C)C)C=C3[Si](C)(C)c3cc(N(C)C)ccc32)c1Br` [Compound 66], the red shift in data set [1] (relative to compound 17 (S moved from Z to X position, bromine substituent added)) was 23 nm.

As for `CN(C)c1ccc2c(c1)[Si](C)(C)C1=CC(=[N+](C)C)C=CC1=C2c1ccc(C(=O)O)s1` [Compound 65, 3,6-bis(dimethylamino)-9-(2-carboxy-thien-5-yl)-10,10-dimethyl-10-silaxanthenium chloride], in data set [1], the “Abs. λmax” value was determined as 669 nm, the “Em. Λmax” value is on record as 683 nm and the “Relative Fluorescence” value is reported as 0.05.

As for `CN(C)c1ccc2c(c1)[Si](C)(C)c1cc(N(C)C)ccc1[C+]2c1ccsc1` [Compound 88], in data set [2], the cellular uptake entry is on record as “Significant uptake” and the “dye still remaining after washout” value is reported as “approximately one third”. In data set [3], this molecule returned an absorption maximum of 652 nm and an emission maximum of 668 nm.

With `CN(C)c1ccc2c(c1)[Si](C)(C)c1cc(N(C)C)ccc1[C+]2c1cccs1` [Compound 89], in data set [2], the cellular uptake result is on record as “Significant uptake” and the “dye still remaining after washout” value is recorded as “approximately one third”. In data set [3], this molecule returned an absorption maximum of 667 nm and an emission maximum of 681 nm.

Consider `Cc1cc(C(=O)O)ccc1C1=C2C=CC(=[N+]3CCOCC3)C=C2[Si](C)(C)c2cc(N3CCOCC3)ccc21` [Compound 45, 3,6-bis(morpholino)-9-(2-methyl-4-carboxyphenyl)-10,10-dimethyl-10-silaxanthenium], for which, in data set [1], the “Abs. λmax” value amounted to 651 nm, the “Em. Λmax” value came out at 670 nm and the “Relative Fluorescence” value came out at 0.75.

As to `Cc1c(C2=C3C=CC(=[N+](C)C)C=C3[Si](C)(C)c3cc(N(C)C)ccc32)csc1C(=O)O` [Compound 18, 3,6-bis(dimethylamino)-9-(2-carboxy-3-methyl-thien-4-yl)-10,10-dimethyl-10-silaxanthenium chloride], in data set [1], the “Abs. λmax” value came out at 653 nm, the “Em. Λmax” value is listed as 668 nm and the “Relative Fluorescence” value is 1.02.

Consider `O=[N+]([O-])c1ccc(N[C@H]2C(O)O[C@H](CO)[C@@H](O)[C@@H]2O)c2nonc12` (stereo partly shown) [Compound 2-NBDG, reference compound], for which, in data set [4], the cell uptake entry is “taken up by the cells” and the “quantification of cell fluorescence by flow cytometry” value was “in normal analysis range”.

Turning to `Cc1ccccc1C1=C2C=CC(=[N+](C)C)C=C2[Si](C)(C)c2cc(N(C)C)ccc21` [Compound 77], in data set [1], the “Abs. λmax” value amounted to 650 nm, the “Em. Λmax” value was 666 nm and the “Relative Fluorescence” value was 1.20.

In the case of `CC(C)C[C@@H](NC(=O)[C@@H](Cc1ccccc1)NC(=O)CNC(=O)[C@@H](CCCCNC(=O)c1cc(C2=C3C=CC(=[N+](C)C)C=C3[Si](C)(C)c3cc(N(C)C)ccc32)c(C(=O)[O-])s1)NC(=O)CCC(=O)O)C(=O)NCC(=O)N[C@H](CCCCNC(=O)c1cc(C2=C3C=CC(=[N+](C)C)C=C3[Si](C)(C)c3cc(N(C)C)ccc32)c(C(=O)[O-])s1)C(N)=O` [Compound 91], the “increase in fluorescence intensity” value in data set [5] worked out at 22 fold.

In the case of `Cc1csc(C(=O)O)c1C1=C2C=CC(=[N+](C)C)C=C2[Si](C)(C)c2cc(N(C)C)ccc21` [Compound 17, 3,6-bis(dimethylamino)-9-(2-carboxy-4-methyl-thien-3-yl)-10,10-dimethyl-10-silaxanthenium chloride], in data set [1], the “Abs. λmax” value is reported as 649 nm, the “Em. Λmax” value came to 666 nm and the “Relative Fluorescence” value is reported as 1.11.

On to `Cc1cc(C(=O)N[C@@H]2[C@@H](O)[C@H](O)[C@@H](CO)O[C@@H]2O)ccc1C1=C2C=CC(=[N+]3CCCC3)C=C2[Si](C)(C)c2cc(N3CCCC3)ccc21` [Compound 67], for which, in data set [4], the cell uptake result is “taken up by the cells” and the “quantification of cell fluorescence by flow cytometry” value is “detector saturation”.

Regarding `Cc1cc(C(=O)O)ccc1C1=C2C=CC(=[N+]3CCCC3)C=C2[Si](C)(C)c2cc(N3CCCC3)ccc21` [Compound 44, 3,6-bis(pyrridolin-1-yl)-9-(2-methyl-4-carboxyphenyl)-10,10-dimethyl-10-silaxanthenium], in data set [6], the “wash out of the untargeted compound” value is at most 3 h. In addition, the “biodistribution by tomographic imaging” value in data set [6] (imaged 1 minute to 3 hours) is reported as “Rapid accumulation of the fluorochrome compound can be seen in the heart region followed by slower accumulation to other areas of the body”. Besides, in data set [1], the “Abs. λmax” value came out at 655 nm, the “Em. Λmax” value amounted to 669 nm and the “Relative Fluorescence” value is 1.54.
